The nature of data set [1]: RP-TLC determination of chromatographic lipophilicity parameter RMW (Soczewiński–Wachtmeister extrapolation to pure water). In kind it is physicochemical. The settings on record: for RMW values, range: range over all plates (RP2F254, RP18F254, RP18WF254) and all mobile phases. The protocol:
Thin-layer chromatography aluminum plates (20 cm × 20 cm, 0.25 mm) precoated with silica gel RP18F254, and glass plates coated with silica gel RP18WF254 (20 cm × 10 cm) and silica gel RP2F254 (10 cm × 10 cm) were obtained from Merck (Darmstadt, Germany).
The chromatographic analysis was carried out according to the procedure described earlier on RP-TLC plates (RP2F254, RP18F254, RP18WF254) as a stationary phase using three different mobile phases. Five microliters of standard solutions of analytes were spotted onto the chromatographic plates. The chromatographic chamber 20 cm × 10 cm (Camag, Switzerland) was saturated with the mobile phase vapors for 20 min. The mobile phases were prepared by mixing appropriate organic modifiers (ethanol, propan-2-ol, acetonitrile) and water in different volume compositions. The content of the organic modifier in the mobile phase used was changed in the step of 5% (v/v) in the range of 30–90% v/v. Thus, the mobile phases used consisted of a suitable organic solvent and water mixed in the following volume compositions: 30:70; 35:65; 40:60; 45:55; 50:50; […]; 60:40; 65:35; 70:30; 75:25; 80:20; 85:15 and 90:10. Chromatograms were developed at room temperature (21 ± 1 °C) to the solvent distance of 7 cm. Next, the chromatograms were dried for 24 h at (21 ± 1 °C) in a fume cupboard. The detection of the studied compounds was carried out under a UV lamp at 254 nm (Camag, Muttenz, Switzerland). The values of Rf (retardation factor) are the average values of three independent measurements in each case.

On the set-up of data set [2]: method as in ChemSpider / selleckchem.com. The settings on record: ref ChemSpider / selleckchem.com, cited from earlier work; for Solubility in Water / logS: aqueous solubility.
On the set-up of data set [3]: method as in DrugBank. The settings on record: n-octanol-water, ref DrugBank, cited from earlier work.
The mark [4] stands for this setting: RP2F254 plates, acetonitrile-water mobile phase.
Setting [5] is: RP2F254 plates, ethanol–water mobile phase.
[6] abbreviates: RP2F254 plates, propan-2-ol-water mobile phase.
Setting [7] is: RP18F254 plates, acetonitrile-water mobile phase.
Where [8] appears, read: RP18F254 plates, ethanol–water mobile phase.
Where [9] appears, read: RP18F254 plates, propan-2-ol-water mobile phase.
The mark [10] stands for this setting: RP18WF254 plates, acetonitrile-water mobile phase.
The mark [11] stands for this setting: RP18WF254 plates, ethanol–water mobile phase.
Where [12] appears, read: RP18WF254 plates, propan-2-ol-water mobile phase.

We go through five compounds from paper PMC10059999, “Assessment of Lipophilicity Parameters of Antimicrobial and Immunosuppressive Compounds” (Molecules, 2023).

Values after ≈ are worked out from the molar mass of the structure shown. Read-outs that look alike come from different tables or passages of the source.

As for `CC(=O)NC[C@H]1CN(c2ccc(N3CCSCC3)c(F)c2)C(=O)O1` [Sutezolid, sutezolid], the RMW in data set [1] (setting [4]) is 1.4312; in data set [1] (setting [5]), 1.4334; in data set [1] (setting [6]), 1.1590; in data set [1] (setting [7]), 2.2114; in data set [1] (setting [8]), 1.8680; in data set [1] (setting [9]) it was 1.5937. The RMW in data set [1] (setting [10]) was 2.0329; in data set [1] (setting [11]) it was 1.9661; in data set [1] (setting [12]), 1.4784. Besides, in data set [2], the “Solubility in Water” value is 237 µg/mL (≈ 671 µM). In addition, the logS in data set [2] is −3.2. Besides, the “pKa (Strongest Acidic)” value in data set [2] is given as 14.85. Moreover, the “pKa (Strongest Basic)” value in data set [2] is −0.14.

`Nc1nc(-n2cc(C(=O)O)c(=O)c3cc(F)c(N4CC(O)C4)c(Cl)c32)c(F)cc1F` [Delafloxacin, delafloxacin]: the RMW was 0.6615 in data set [1] (setting [4]); 0.9184 in data set [1] (setting [5]); 0.7390 in data set [1] (setting [6]); 2.3174 in data set [1] (setting [7]); 2.1359 in data set [1] (setting [8]); 1.7719 in data set [1] (setting [9]). Moreover, the figures for the RMW in data set [1] (setting [10]), in data set [1] (setting [11]) and in data set [1] (setting [12]) were 1.8351, 1.9694 and 1.6940, respectively. Further, the “Solubility in Water” value in data set [2] was 69.9 µg/mL (≈ 159 µM). For the same compound, in data set [2], the logS is −3.8. The “pKa (Strongest Acidic)” value in data set [2] is listed as 5.62. Further, in data set [2], the “pKa (Strongest Basic)” value was −1.3.

For the compound `CC(C)(O/N=C(\C(=O)N[C@@H]1C(=O)N2C(C(=O)[O-])=C(C[n+]3ccccc3)CS[C@H]12)c1csc(N)n1)C(=O)O` [Ceftazidime, ceftazidime], the “logPexp (Experimental Value)” value in data set [3] was −1.60; in data set [3] (listed as ceftazidime), −1.6. The RMW in data set [1] (setting [4]) is given as −0.0357; in data set [1] (setting [5]), −0.6643; in data set [1] (setting [6]) it was −0.3642; in data set [1] (setting [7]), 0.1462; in data set [1] (setting [8]), −2.9545; in data set [1] (setting [9]), 0.4691. In addition, the figures for the RMW in data set [1] (setting [10]), in data set [1] (setting [11]) and in data set [1] (setting [12]) were 0.4121, 0.4152 and 0.9153, respectively. In addition, in data set [1] (RP2F254 plates, range over the three mobile phases), the “RMW values, range on RP2F254” value was −0.0357 to −0.6643. The “RMW values, range” value in data set [1] is recorded as −2.9545 to 0.9153. Moreover, the “Solubility in Water” value in data set [2] is 5.73 µg/mL (≈ 10.5 µM). Also, the logS in data set [2] is recorded as −5.0. In addition, in data set [2], the “pKa (Strongest Acidic)” value is on record as 2.42. For the same compound, the “pKa (Strongest Basic)” value in data set [2] was 4.02.

As for `CO[C@H]1C[C@@H]2CC[C@@H](C)[C@@](O)(O2)C(=O)C(=O)N2CCCC[C@H]2C(=O)O[C@H]([C@H](C)C[C@@H]2CC[C@@H](OCCO)[C@H](OC)C2)CC(=O)[C@H](C)/C=C(\C)[C@@H](O)[C@@H](OC)C(=O)[C@H](C)C[C@H](C)/C=C/C=C/C=C/1C` [Everolimus, everolimus], the RMW is listed as 2.8557 in data set [1] (setting [4]); 2.9460 in data set [1] (setting [5]); 2.2145 in data set [1] (setting [6]); 2.9462 in data set [1] (setting [7]); 3.5637 in data set [1] (setting [8]); 2.5865 in data set [1] (setting [9]). For the same compound, the RMW in data set [1] (setting [10]) was 2.7737; in data set [1] (setting [11]), 2.8227; in data set [1] (setting [12]), 2.5687. The “RMW values, range” value in data set [1] is 2.2145–3.5637. Further, the “Solubility in Water” value in data set [2] is 1.63 µg/mL (≈ 1.7 µM). In addition, in data set [2], the logS is listed as −5.8. The “pKa (Strongest Acidic)” value in data set [2] was 9.96. Further, the “pKa (Strongest Basic)” value in data set [2] is reported as −2.7.

In the case of `CO[C@H]1C[C@@H]2CC[C@@H](C)[C@@](O)(O2)C(=O)C(=O)N2CCCC[C@H]2C(=O)O[C@H]([C@H](C)C[C@@H]2CC[C@H](n3cnnn3)[C@H](OC)C2)CC(=O)[C@H](C)/C=C(\C)[C@@H](O)[C@@H](OC)C(=O)[C@H](C)C[C@H](C)/C=C/C=C/C=C/1C` [Zotarolimus, zotarolimus], the RMW in data set [1] (setting [4]) was 2.7480; in data set [1] (setting [5]) it was 3.3623; in data set [1] (setting [6]), 2.1522; in data set [1] (setting [7]), 3.1252; in data set [1] (setting [8]), 3.1105; in data set [1] (setting [9]), 2.4741. For the same compound, the RMW in data set [1] (setting [10]) is given as 3.2300; in data set [1] (setting [11]) it was 2.7377; in data set [1] (setting [12]), 2.7821. In addition, the “RMW values, range” value in data set [1] is 2.1522–3.3623.
